{"source": "patent US20120275998A1", "about": "“BIODEGRADABLE STENT COMPRISING AN ACID SCAVENGING AGENT” (priority 2009, published 2012)", "origin": "cited, not measured here"}
{"smiles": "OCCN(CCO)c1nc(N2CCCCC2)c2nc(N(CCO)CCO)nc(N3CCCCC3)c2n1", "note": "[Dipyridamole, 2,6-bis(dithioethanolamino)-4,8-dipiperidinopyrimido(5,4-d)pyrimidine]", "values": [{"measurement": "Soluble (solvents)", "setting": "solvents in which the substance is soluble", "result": "Ethanol, dimethyl sulfoxide"}, {"measurement": "Water solubility", "setting": "water", "result": "slightly soluble in water"}]}
